Values joined by “and” are separate entries in the source; they are usually repeats but may differ in a detail not shown here. Equal entries are not always repeated. Toxic doses and inconclusive results are not listed. The calls were made as follows: active = survival T/C of 150% or more; inactive = T/C below 125% in these data.
Tested on: CD2F1 mice, L1210 leukemia ip, survival T/C
Experiment: NCI In Vivo Anticancer Drug Screen. Data for tumor model L1210 Leukemia (intraperitoneal) in CD2F1 (CDF1) mice
Conditions: endpoint: mean survival time, higher = longer survival
Summary of the method: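 Transplantable tumor in mice; compound-treated vs vehicle-treated groups. Read-out = treated/control ratio of the measured endpoint.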

[1] = dose: 100.0 mg/kg/injection, schedule: Q04DX003 (ip), vehicle: saline
[2] = dose: 200.0 mg/kg/injection, schedule: Q04DX003 (ip), vehicle: saline
[3] = dose: 400.0 mg/kg/injection, schedule: Q04DX003 (ip), vehicle: saline
[4] = dose: 100.0 mg/kg/injection, schedule: Q04DX002 (ip), vehicle: saline with Tween-80
[5] = dose: 200.0 mg/kg/injection, schedule: Q04DX002 (ip), vehicle: saline with Tween-80
[6] = dose: 400.0 mg/kg/injection, schedule: Q04DX002 (ip), vehicle: saline with Tween-80
[7] = dose: 100.0 mg/kg/injection, schedule: Q01DX009 (ip), vehicle: saline with Tween-80
[8] = dose: 12.5 mg/kg/injection, schedule: Q01DX005 (ip), vehicle: distilled water + Tween-80
[9] = dose: 25.0 mg/kg/injection, schedule: Q01DX005 (ip), vehicle: distilled water + Tween-80
[10] = dose: 100.0 mg/kg/injection, schedule: Q01DX005 (ip), vehicle: distilled water + Tween-80
[11] = dose: 200.0 mg/kg/injection, schedule: Q01DX005 (ip), vehicle: distilled water + Tween-80
[12] = dose: 100.0 mg/kg/injection, schedule: Q01DX001 (ip), vehicle: saline with Tween-80
[13] = dose: 200.0 mg/kg/injection, schedule: Q01DX001 (ip), vehicle: saline with Tween-80
[14] = dose: 200.0 mg/kg/injection, schedule: Q01DX009 (ip), vehicle: saline with Tween-80
[15] = dose: 400.0 mg/kg/injection, schedule: Q01DX001 (ip), vehicle: saline with Tween-80
[16] = dose: 400.0 mg/kg/injection, schedule: Q01DX009 (ip), vehicle: saline with Tween-80
[17] = dose: 100.0 mg/kg/injection, schedule: Q04DX003 (ip), vehicle: saline with Tween-80
[18] = dose: 200.0 mg/kg/injection, schedule: Q04DX003 (ip), vehicle: saline with Tween-80
[19] = dose: 400.0 mg/kg/injection, schedule: Q04DX003 (ip), vehicle: saline with Tween-80

Measured: T/C

CCNC(=O)N1CC2CCC(C1)N2C
inactive: [1] 101 % of control | [2] 96 % of control | [3] 90 % of control

O=C(O)c1cc([N+](=O)[O-])cc([N+](=O)[O-])c1 (tested in a mixture with another compound)
inactive: [4] 105 % of control and 114 % of control | [5] 101 % of control and 105 % of control | [6] 94 % of control

c1ccc(CNCc2ccccc2)cc1
inactive: dose: 100.0 mg/kg/injection, schedule: Q04DX003 (ip), vehicle: Klucel (hydroxypropylcellulose) (HPC) 97 % of control | dose: 200.0 mg/kg/injection, schedule: Q04DX003 (ip), vehicle: Klucel (hydroxypropylcellulose) (HPC) 100 % of control

O=C1CCCC1=P(c1ccccc1)(c1ccccc1)c1ccccc1
inactive: dose: 100.0 mg/kg/injection, schedule: Q04DX003 (ip), vehicle: other 99 % of control | dose: 200.0 mg/kg/injection, schedule: Q04DX003 (ip), vehicle: other 90 % of control

CCOC(=O)c1ccc(Cl)cc1
inactive: dose: 25.0 mg/kg/injection, schedule: Q01DX009 (ip), vehicle: saline with Tween-80 101 % of control | dose: 50.0 mg/kg/injection, schedule: Q01DX009 (ip), vehicle: saline with Tween-80 102 % of control | [7] 95 % of control

O=c1ccn(C2OC(CO)C(O)C2O)c(/C=C(\O)c2ccccc2)n1 (stereo not drawn)
inactive: [8] 105 % of control | [9] 97 % of control | dose: 50.0 mg/kg/injection, schedule: Q01DX005 (ip), vehicle: distilled water + Tween-80 97 % of control | [10] 102 % of control | [11] 102 % of control

CN(Cc1ccc2nc(N)[nH]c(=O)c2n1)c1ccc(C(=O)NC(CCC(=O)O)C(=O)O)cc1 (stereo not drawn)
inactive: dose: 0.5 mg/kg/injection, schedule: Q01DX005 (ip), vehicle: sodium bicarbonate 98 % of control and 101 % of control | dose: 1.0 mg/kg/injection, schedule: Q01DX005 (ip), vehicle: sodium bicarbonate 101 % of control and 104 % of control | dose: 2.0 mg/kg/injection, schedule: Q01DX005 (ip), vehicle: sodium bicarbonate 101 % of control and 102 % of control | dose: 4.0 mg/kg/injection, schedule: Q01DX005 (ip), vehicle: sodium bicarbonate 98 % of control and 102 % of control | dose: 8.0 mg/kg/injection, schedule: Q01DX005 (ip), vehicle: sodium bicarbonate 104 % of control and 107 % of control | dose: 16.0 mg/kg/injection, schedule: Q01DX005 (ip), vehicle: sodium bicarbonate 102 % of control and 107 % of control

COC(=O)C(Cc1c[nH]c2ccccc12)NC(=O)C(Cc1c[nH]c2ccccc12)NC(=O)OC(C)(C)C (stereo not drawn)
inactive: [12] 87 % of control | [7] 98 % of control | [13] 96 % of control | [14] 96 % of control | [15] 100 % of control | [16] 104 % of control

Cc1nc2ccccn2c(=O)c1Br
inactive: dose: 50.0 mg/kg/injection, schedule: Q01DX001 (ip), vehicle: saline 104 % of control | dose: 100.0 mg/kg/injection, schedule: Q01DX001 (ip), vehicle: saline 104 % of control | dose: 200.0 mg/kg/injection, schedule: Q01DX001 (ip), vehicle: saline 104 % of control

CCOC(=O)Cc1ccnc(C)c1
inactive: [12] 93 % of control | [7] 100 % of control | [13] 94 % of control | [14] 103 % of control | [15] 96 % of control

CN(C)C1c2cc(Cl)ccc2-c2ccc(Cl)cc21
inactive: dose: 50.0 mg/kg/injection, schedule: Q01DX001 (ip), vehicle: carboxymethylcellulose (CMC) 101 % of control | dose: 100.0 mg/kg/injection, schedule: Q01DX001 (ip), vehicle: carboxymethylcellulose (CMC) 95 % of control | dose: 200.0 mg/kg/injection, schedule: Q01DX001 (ip), vehicle: carboxymethylcellulose (CMC) 101 % of control | dose: 400.0 mg/kg/injection, schedule: Q01DX001 (ip), vehicle: carboxymethylcellulose (CMC) 98 % of control

N#CC(CCN1CCCCC1)(c1ccccc1)c1ccccc1
inactive: [1] 97 % of control | [2] 102 % of control | [3] 97 % of control

O=P(Oc1cccc(Br)c1)(Oc1cccc(Br)c1)c1ccccc1
inactive: [17] 98 % of control | [18] 106 % of control | [19] 108 % of control

O=C(Nc1ccccc1[N+](=O)[O-])OC/C=C/c1ccccc1
inactive: [4] 91 % of control | [5] 91 % of control | [6] 87 % of control

CC(C)[S-].CC(C)[S-].[Pt+2].c1ccc([PH+](c2ccccc2)c2ccccc2)cc1.c1ccc([PH+](c2ccccc2)c2ccccc2)cc1
inactive: dose: 3.13 mg/kg/injection, schedule: Q04DX003 (sc), vehicle: distilled water + Tween-80 96 % of control | dose: 6.25 mg/kg/injection, schedule: Q04DX003 (sc), vehicle: distilled water + Tween-80 100 % of control | dose: 12.5 mg/kg/injection, schedule: Q04DX003 (sc), vehicle: distilled water + Tween-80 92 % of control | dose: 50.0 mg/kg/injection, schedule: Q04DX003 (sc), vehicle: distilled water + Tween-80 87 % of control | dose: 200.0 mg/kg/injection, schedule: Q04DX003 (sc), vehicle: distilled water + Tween-80 89 % of control

NC(=O)c1ncn(C2CC3[O][Sn]([c]4ccccc4)([c]4ccccc4)[O]CC3O2)n1 (stereo not drawn)
inactive: [8] 101 % of control | [9] 97 % of control | [10] 88 % of control | [11] 95 % of control

CC(=O)Nc1ccc(OC(=O)Nc2ccc(F)c(Cl)c2)cc1
inactive: [7] 98 % of control | [14] 93 % of control | [16] 110 % of control

Cc1ccc2c(c1)C(=O)N(CC[P+](c1ccccc1)(c1ccccc1)c1ccccc1)C2=O
inactive: dose: 0.39 mg/kg/injection, schedule: Q01DX009 (ip), vehicle: Klucel (hydroxypropylcellulose) (HPC) 105 % of control | dose: 0.78 mg/kg/injection, schedule: Q01DX009 (ip), vehicle: Klucel (hydroxypropylcellulose) (HPC) 100 % of control | dose: 1.56 mg/kg/injection, schedule: Q01DX009 (ip), vehicle: Klucel (hydroxypropylcellulose) (HPC) 112 % of control | dose: 3.12 mg/kg/injection, schedule: Q01DX009 (ip), vehicle: Klucel (hydroxypropylcellulose) (HPC) 103 % of control | dose: 6.25 mg/kg/injection, schedule: Q01DX009 (ip), vehicle: Klucel (hydroxypropylcellulose) (HPC) 105 % of control | dose: 12.5 mg/kg/injection, schedule: Q01DX009 (ip), vehicle: Klucel (hydroxypropylcellulose) (HPC) 101 % of control | dose: 25.0 mg/kg/injection, schedule: Q01DX009 (ip), vehicle: Klucel (hydroxypropylcellulose) (HPC) 105 % of control

Cc1cccc(NC(=O)C2CCC(C)(C(=O)O)C2(C)C)c1 (stereo not drawn)
inactive: [17] 94 % of control | [18] 90 % of control

O=c1[nH]c(-c2ccccc2)nc(-c2ccccc2)c1CCO
inactive: [17] 95 % of control | [18] 91 % of control | [19] 106 % of control

CCCCC/C(C)=C(\C)c1cc(OC)cc(OC)c1
inactive: [7] 103 % of control | [14] 106 % of control | [16] 91 % of control
